Test results from the supplement of paper PMC4932681.

Assays:
T-47D Tam1 [1] = test: relative IC50 (midpoint of fitted logistic curve, plateau may be below 50% inhibition; CellTiter-Glo viability); higher = less potent; conditions: 4-OH-tamoxifen in medium 1 µM; 72 h
Procedure, shortened: (§1)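 CellTiter-Glo viability was the readout, taken on a PHERAstar and normalised to vehicle-only and positive controls. It was measured after breast cancer cell lines and their resistant derivatives spent 72 h at 37 °C in 384-well plates containing library drugs at five concentrations spanning a 10 000-fold range, with 1 μM of the selecting drug in the medium of resistant lines. From logistic dose–response fits in the Breeze pipeline came drug sensitivity score, relative IC50 (curve midpoint) and top-dose inhibition.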

ZR-75-1 Tam2 [2] = test: as above; conditions: 4-OH-tamoxifen in medium 1 µM; 72 h
Procedure, shortened: as §1

ZR-75-1 [3] = test: as above; conditions: 72 h
Procedure, shortened: as §1

MCF-7 Tam1 [4] = test: as above; conditions: 4-OH-tamoxifen in medium 1 µM; 72 h
Procedure, shortened: as §1

BT-474 Tam1 [5] = test: as above; conditions: 4-OH-tamoxifen in medium 1 µM; 72 h
Procedure, shortened: as §1

T-47D [6] = test: as above; conditions: 72 h
Procedure, shortened: as §1

MCF-7 [7] = test: as above; conditions: 72 h
Procedure, shortened: as §1

ZR-75-1 Tam1 [8] = test: as above; conditions: 4-OH-tamoxifen in medium 1 µM; 72 h
Procedure, shortened: as §1

T-47D Tam2 [9] = test: as above; conditions: 4-OH-tamoxifen in medium 1 µM; 72 h
Procedure, shortened: as §1

BT-474 [10] = test: as above; conditions: 72 h
Procedure, shortened: as §1

BT-474 Tam2 [11] = test: as above; conditions: 4-OH-tamoxifen in medium 1 µM; 72 h
Procedure, shortened: as §1

T-47D Tam1 [12] = test: drug sensitivity score (DSS) (DSS (dimensionless)); higher = more sensitive; extreme values may be limits of the assay; conditions: 4-OH-tamoxifen in medium 1 µM; 72 h
Procedure, shortened: as §1

ZR-75-1 Tam2 [13] = test: as above; conditions: 4-OH-tamoxifen in medium 1 µM; 72 h
Procedure, shortened: as §1

ZR-75-1 [14] = test: as above; conditions: 72 h
Procedure, shortened: as §1

MCF-7 Tam1 [15] = test: as above; conditions: 4-OH-tamoxifen in medium 1 µM; 72 h
Procedure, shortened: as §1

BT-474 Tam1 [16] = test: as above; conditions: 4-OH-tamoxifen in medium 1 µM; 72 h
Procedure, shortened: as §1

T-47D [17] = test: as above; conditions: 72 h
Procedure, shortened: as §1

MCF-7 [18] = test: as above; conditions: 72 h
Procedure, shortened: as §1

ZR-75-1 Tam1 [19] = test: as above; conditions: 4-OH-tamoxifen in medium 1 µM; 72 h
Procedure, shortened: as §1

T-47D Tam2 [20] = test: as above; conditions: 4-OH-tamoxifen in medium 1 µM; 72 h
Procedure, shortened: as §1

BT-474 [21] = test: as above; conditions: 72 h
Procedure, shortened: as §1

BT-474 Tam2 [22] = test: as above; conditions: 4-OH-tamoxifen in medium 1 µM; 72 h
Procedure, shortened: as §1

relative IC50 (T-47D Tam1 [1]) [nM]	relative IC50 (MCF-7 Tam1 [4]) [nM]	relative IC50 (BT-474 Tam1 [5]) [nM]	relative IC50 (T-47D [6]; 4-OH-tamoxifen in medium 0 µM) [nM]	relative IC50 (T-47D [6]; 4-OH-tamoxifen in medium 1 µM) [nM]	relative IC50 (MCF-7 [7]; 4-OH-tamoxifen in medium 0 µM) [nM]	relative IC50 (MCF-7 [7]; 4-OH-tamoxifen in medium 1 µM) [nM]	relative IC50 (T-47D Tam2 [9]) [nM]	relative IC50 (BT-474 [10]; 4-OH-tamoxifen in medium 0 µM) [nM]	relative IC50 (BT-474 [10]; 4-OH-tamoxifen in medium 1 µM) [nM]	relative IC50 (BT-474 Tam2 [11]) [nM]	SMILES	relative IC50 (ZR-75-1 Tam2 [2]) [nM]	relative IC50 (ZR-75-1 [3]; 4-OH-tamoxifen in medium 0 µM) [nM]	relative IC50 (ZR-75-1 [3]; 4-OH-tamoxifen in medium 1 µM) [nM]	relative IC50 (ZR-75-1 Tam1 [8]) [nM]	drug sensitivity score (T-47D Tam1 [12])	drug sensitivity score (ZR-75-1 Tam2 [13])	drug sensitivity score (ZR-75-1 [14]; 4-OH-tamoxifen in medium 0 µM)	drug sensitivity score (ZR-75-1 [14]; 4-OH-tamoxifen in medium 1 µM)	drug sensitivity score (MCF-7 Tam1 [15])	drug sensitivity score (BT-474 Tam1 [16])	drug sensitivity score (T-47D [17]; 4-OH-tamoxifen in medium 0 µM)	drug sensitivity score (T-47D [17]; 4-OH-tamoxifen in medium 1 µM)	drug sensitivity score (MCF-7 [18]; 4-OH-tamoxifen in medium 0 µM)	drug sensitivity score (MCF-7 [18]; 4-OH-tamoxifen in medium 1 µM)	drug sensitivity score (ZR-75-1 Tam1 [19])	drug sensitivity score (T-47D Tam2 [20])	drug sensitivity score (BT-474 [21]; 4-OH-tamoxifen in medium 0 µM)	drug sensitivity score (BT-474 [21]; 4-OH-tamoxifen in medium 1 µM)	drug sensitivity score (BT-474 Tam2 [22])
> 1000	> 1000	> 1000	> 1000	> 1000	> 1000	> 1000	> 1000	> 1000	> 1000	> 1000	Cc1ccc(F)c(NC(=O)Nc2ccc(-c3cccc4[nH]nc(N)c34)cc2)c1 [Linifanib (ABT-869)]	> 1000	> 1000	> 1000	> 1000	0	0	0	0	0	0	0	0	0	0	0	0	0	0	0
> 1000	> 1000	> 1000	> 1000	> 1000	> 1000	> 1000	> 1000	> 1000	> 1000	> 1000	COc1cc2c(N3CCN(C(=O)Nc4ccc(OC(C)C)cc4)CC3)ncnc2cc1OCCCN1CCCCC1 [Tandutinib]	> 1000	> 1000	> 1000	> 1000	0	0	0	0	0	0	0	0	0	0	0	0	0	0	0
1640	444	27.4	1550	939	61.5	65.6	2180	42.2	42.4	38.6	C=CCNC1=C2C[C@@H](C)C[C@H](OC)[C@H](O)[C@@H](C)/C=C(\C)[C@H](OC(N)=O)[C@@H](OC)/C=C\C=C(/C)C(=O)NC(=CC1=O)C2=O [Tanespimycin  (17-AAG)]	118	74.5	141	284	3.79	11.6	8.45	9.57	4.15	24	5.17	5.11	19.2	13.9	7.79	3.1	17.1	24	23.1
> 100	> 100	> 100	> 100	> 100	> 100		> 100	> 100	> 100	> 100	Cc1ccc(C(=O)N(CCCN)[C@@H](c2oc3cc(Cl)ccc3c(=O)c2Cc2ccccc2)C(C)C)cc1	> 100	> 100	> 100	> 100	0	0	0	0	0	0	0	0	0	0.514	0	0	0	0	0
> 10000	> 10000	> 10000	> 10000	> 10000		> 10000	> 10000	> 10000	> 10000	> 10000	Nc1ncn([C@H]2C[C@H](O)[C@@H](CO)O2)c(=O)n1 [Decitabine (Dacogen)]	> 10000	> 10000	> 10000	> 10000	0	0	0	0	0	0	0	0	1.25	0	0	0	0	0	0
> 10000	> 10000	> 10000	> 10000	> 10000	> 10000	> 10000	> 10000	> 10000	> 10000	> 10000	C[C@]1(c2nc3c(C(N)=O)cccc3[nH]2)CCCN1 [Veliparib  (ABT-888)]	> 10000	> 10000	> 10000	> 10000	0	0	0	0	0	0	0	0	0	0	0	0	0	0	0

SMILES	relative IC50 (T-47D Tam1 [1]) [nM]	relative IC50 (MCF-7 Tam1 [4]) [nM]	relative IC50 (BT-474 Tam1 [5]) [nM]	relative IC50 (T-47D [6]; 4-OH-tamoxifen in medium 0 µM) [nM]	relative IC50 (T-47D [6]; 4-OH-tamoxifen in medium 1 µM) [nM]	relative IC50 (MCF-7 [7]; 4-OH-tamoxifen in medium 0 µM) [nM]	relative IC50 (MCF-7 [7]; 4-OH-tamoxifen in medium 1 µM) [nM]	relative IC50 (T-47D Tam2 [9]) [nM]	relative IC50 (BT-474 [10]; 4-OH-tamoxifen in medium 0 µM) [nM]	relative IC50 (BT-474 [10]; 4-OH-tamoxifen in medium 1 µM) [nM]	relative IC50 (BT-474 Tam2 [11]) [nM]	relative IC50 (ZR-75-1 Tam2 [2]) [nM]	relative IC50 (ZR-75-1 [3]; 4-OH-tamoxifen in medium 0 µM) [nM]	relative IC50 (ZR-75-1 [3]; 4-OH-tamoxifen in medium 1 µM) [nM]	relative IC50 (ZR-75-1 Tam1 [8]) [nM]	drug sensitivity score (T-47D Tam1 [12])	drug sensitivity score (ZR-75-1 Tam2 [13])	drug sensitivity score (ZR-75-1 [14]; 4-OH-tamoxifen in medium 0 µM)	drug sensitivity score (ZR-75-1 [14]; 4-OH-tamoxifen in medium 1 µM)	drug sensitivity score (MCF-7 Tam1 [15])	drug sensitivity score (BT-474 Tam1 [16])	drug sensitivity score (T-47D [17]; 4-OH-tamoxifen in medium 0 µM)	drug sensitivity score (T-47D [17]; 4-OH-tamoxifen in medium 1 µM)	drug sensitivity score (MCF-7 [18]; 4-OH-tamoxifen in medium 0 µM)	drug sensitivity score (MCF-7 [18]; 4-OH-tamoxifen in medium 1 µM)	drug sensitivity score (ZR-75-1 Tam1 [19])	drug sensitivity score (T-47D Tam2 [20])	drug sensitivity score (BT-474 [21]; 4-OH-tamoxifen in medium 0 µM)	drug sensitivity score (BT-474 [21]; 4-OH-tamoxifen in medium 1 µM)	drug sensitivity score (BT-474 Tam2 [22])
C[C@]12CC[C@@H]3c4ccc(OC(=O)N(CCCl)CCCl)cc4CC[C@H]3[C@@H]1CC[C@@H]2O [Estramustine]	> 990000	> 990000	> 990000	> 990000	> 990000	> 990000	> 990000	> 990000	> 990000	> 990000	> 990000	> 990000	> 990000	> 990000	> 990000	0	0	0	0	0	0	0	0	0	0	0	0	0	0	0
